Tested on: HCT116 colorectal cancer cells
Assay: Cisplatin sensitization assay (96 h cell viability MTS);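 further: Test-compound concentration that lowers the Cisplatin IC50 by a set fold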
Assay type: cell-based
Conditions: compound and Cisplatin added simultaneously, Cisplatin sensitization value
How it was run: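 Compound and cisplatin added together as a full matrix of 2-fold serial dilutions from a top final concentration of 10 μM; cells incubated 96 h at 37° C, 5% CO2. Viability then read by MTS after 1 h further incubation; sensitization value reported in μM bins.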

CN(C)C(=O)[C@H]1CC[C@@H](Oc2ccncc2NC(=O)c2c(N)nn3cc(F)cnc23)CC1 [I-O-17, 2-amino-N-(4-(((1s,4s)-4-(dimethylcarbamoyl)cyclohexyl)oxy)pyridin-3-yl)-6-fluoropyrazolo[1,5-a]pyrimidine-3-carboxamide]
Cisplatin Sensitization Assay: +++ (Cisplatin sensitization value of <0.02 μM)

Nc1nn2cc(Cl)cnc2c1C(=O)Nc1cncc(F)c1N1CCN(C2COC2)CC1 [I-N-117, 2-amino-6-chloro-N-(5-fluoro-4-(4-(oxetan-3-yl)piperazin-1-yl)pyridin-3-yl)pyrazolo[1,5-a]pyrimidine-3-carboxamide]
Cisplatin Sensitization Assay: +++ (Cisplatin sensitization value of <0.02 μM)

CO[C@@H]1CCN(C(=O)C2CCN(c3ccncc3NC(=O)c3c(N)nn4cc(F)cnc34)CC2)C1 [I-G-93, (R)-2-amino-6-fluoro-N-(4-(4-(3-methoxypyrrolidine-1-carbonyl)piperidin-1-yl)pyridin-3-yl)pyrazolo[1,5-a]pyrimidine-3-carboxamide]
Cisplatin Sensitization Assay: +++ (Cisplatin sensitization value of <0.02 μM)

NCC1CCN(c2ccncc2NC(=O)c2c(N)nn3cc(Cl)cnc23)CC1 [I-N-91, 2-amino-N-(4-(4-(aminomethyl)piperidin-1-yl)pyridin-3-yl)-6-chloropyrazolo[1,5-a]pyrimidine-3-carboxamide]
Cisplatin Sensitization Assay: ++ (Cisplatin sensitization value>0.02 μM but <0.2 μM)

COC1CCN(C2CCN(c3ccncc3NC(=O)c3c(N)nn4cc(Cl)cnc34)CC2)C1 (centres unmarked) [I-N-95, 2-amino-6-chloro-N-(4-(4-(3-methoxypyrrolidin-1-yl)piperidin-1-yl)pyridin-3-yl)pyrazolo[1,5-a]pyrimidine-3-carboxamide]
Cisplatin Sensitization Assay: ++ (Cisplatin sensitization value>0.02 μM but <0.2 μM)

CN(C)CCOCCOc1ccncc1NC(=O)c1c(N)nn2cc(Cl)cnc12 [I-O-47, 2-amino-6-chloro-N-(4-(2-(2-(dimethylamino)ethoxy)ethoxy)pyridin-3-yl)pyrazolo[1,5-a]pyrimidine-3-carboxamide]
Cisplatin Sensitization Assay: + (Cisplatin sensitization value>0.2 μM but <5 μM)

Nc1nn2cc(Cl)cnc2c1C(=O)Nc1cnccc1N1CCC(N)CC1 [I-N-86, 2-amino-N-(4-(4-aminopiperidin-1-yl)pyridin-3-yl)-6-chloropyrazolo[1,5-a]pyrimidine-3-carboxamide]
Cisplatin Sensitization Assay: +++ (Cisplatin sensitization value of <0.02 μM)

CN1CCN(CC2CCN(c3c(F)cncc3NC(=O)c3c(N)nn4cc(F)cnc34)CC2)C(=O)C1 [I-N-193, 2-amino-6-fluoro-N-(5-fluoro-4-(4-((4-methyl-2-oxopiperazin-1-yl)methyl)piperidin-1-yl)pyridin-3-yl)pyrazolo[1,5-a]pyrimidine-3-carboxamide]
Cisplatin Sensitization Assay: +++ (Cisplatin sensitization value of <0.02 μM)

Nc1nn2cc(F)cnc2c1C(=O)Nc1cncc(F)c1OC1CCN(C2COC2)CC1 [I-O-91, 2-amino-6-fluoro-N-(5-fluoro-4-((1-(oxetan-3-yl)piperidin-4-yl)oxy)pyridin-3-yl)pyrazolo[1,5-a]pyrimidine-3-carboxamide]
Cisplatin Sensitization Assay: ++ (Cisplatin sensitization value>0.02 μM but <0.2 μM)

CN1CCN(C(=O)C2CCN(c3ccncc3NC(=O)c3c(N)nn4cc(F)cnc34)CC2)CC1 [I-G-1, 2-amino-6-fluoro-N-(4-(4-(4-methylpiperazine-1-carbonyl)piperidin-1-yl)pyridin-3-yl)pyrazolo[1,5-a]pyrimidine-3-carboxamide]
Cisplatin Sensitization Assay: +++ (Cisplatin sensitization value of <0.02 μM)

CN1CCN(C(=O)C2CCN(c3c(Cl)cncc3NC(=O)c3c(N)nn4cc(F)cnc34)CC2)CC1 [I-G-3, 2-amino-N-(5-chloro-4-(4-(4-methylpiperazine-1-carbonyl)piperidin-1-yl)pyridin-3-yl)-6-fluoropyrazolo[1,5-a]pyrimidine-3-carboxamide]
Cisplatin Sensitization Assay: +++ (Cisplatin sensitization value of <0.02 μM)

CNC1CCN(c2ccncc2NC(=O)c2c(N)nn3cc(Cl)cnc23)CC1 [I-N-87, 2-amino-6-chloro-N-(4-(4-(methylamino)piperidin-1-yl)pyridin-3-yl)pyrazolo[1,5-a]pyrimidine-3-carboxamide]
Cisplatin Sensitization Assay: ++ (Cisplatin sensitization value>0.02 μM but <0.2 μM)

Nc1nn2cc(F)cnc2c1C(=O)Nc1cnccc1N1CCN2C(=O)OCC2C1 (centres unmarked) [I-N-238, 2-amino-6-fluoro-N-(4-(3-oxotetrahydro-1H-oxazolo[3,4-a]pyrazin-7(3H)-yl)pyridin-3-yl)pyrazolo[1,5-a]pyrimidine-3-carboxamide]
Cisplatin Sensitization Assay: ++ (Cisplatin sensitization value>0.02 μM but <0.2 μM)

COCC1CN(C(=O)C2CCN(c3c(F)cncc3NC(=O)c3c(N)nn4cc(F)cnc34)CC2)C1 [I-G-98, 2-amino-6-fluoro-N-(5-fluoro-4-(4-(3-(methoxymethyl)azetidine-1-carbonyl)piperidin-1-yl)pyridin-3-yl)pyrazolo[1,5-a]pyrimidine-3-carboxamide]
Cisplatin Sensitization Assay: +++ (Cisplatin sensitization value of <0.02 μM)

COCCN1CCC[C@H](Oc2ccncc2NC(=O)c2c(N)nn3cc(Cl)cnc23)C1 [I-O-67, (S)-2-amino-6-chloro-N-(4-((1-(2-methoxyethyl)piperidin-3-yl)oxy)pyridin-3-yl)pyrazolo[1,5-a]pyrimidine-3-carboxamide]
Cisplatin Sensitization Assay: ++ (Cisplatin sensitization value>0.02 μM but <0.2 μM)

CN1CC2(CCN(c3ccncc3NC(=O)c3c(N)nn4cc(F)cnc34)CC2)OC1=O [I-N-216, 2-amino-6-fluoro-N-(4-(3-methyl-2-oxo-1-oxa-3,8-diazaspiro[4.5]decan-8-yl)pyridin-3-yl)pyrazolo[1,5-a]pyrimidine-3-carboxamide]
Cisplatin Sensitization Assay: +++ (Cisplatin sensitization value of <0.02 μM)

Nc1nn2cc(F)cnc2c1C(=O)Nc1cnccc1-n1ccnc1 [I-N-7, N-(4-(1H-imidazol-1-yl)pyridin-3-yl)-2-amino-6-fluoropyrazolo[1,5-a]pyrimidine-3-carboxamide]
Cisplatin Sensitization Assay: ++ (Cisplatin sensitization value>0.02 μM but <0.2 μM)

CN1CCN(c2cc(Cl)ncc2NC(=O)c2c(N)nn3cc(Cl)cnc23)CC1 [I-N-52, 2-amino-6-chloro-N-(6-chloro-4-(4-methylpiperazin-1-yl)pyridin-3-yl)pyrazolo[1,5-a]pyrimidine-3-carboxamide]
Cisplatin Sensitization Assay: ++ (Cisplatin sensitization value>0.02 μM but <0.2 μM)

Nc1nn2cc(Cl)cnc2c1C(=O)Nc1cnccc1N1CCN2CCC1CC2 [I-N-56, N-(4-(1,4-diazabicyclo[3.2.2]nonan-4-yl)pyridin-3-yl)-2-amino-6-chloropyrazolo[1,5-a]pyrimidine-3-carboxamide]
Cisplatin Sensitization Assay: ++ (Cisplatin sensitization value>0.02 μM but <0.2 μM)

CN1CCOC(C(=O)N2CCN(c3c(F)cncc3NC(=O)c3c(N)nn4cc(F)cnc34)CC2)C1 (centres unmarked) [I-N-174, 2-amino-6-fluoro-N-(5-fluoro-4-(4-(4-methylmorpholine-2-carbonyl)piperazin-1-yl)pyridin-3-yl)pyrazolo[1,5-a]pyrimidine-3-carboxamide]
Cisplatin Sensitization Assay: +++ (Cisplatin sensitization value of <0.02 μM)

Nc1nn2cc(Cl)cnc2c1C(=O)Nc1cnccc1Oc1cccnc1 [I-O-70, 2-amino-6-chloro-N-(4-(pyridin-3-yloxy)pyridin-3-yl)pyrazolo[1,5-a]pyrimidine-3-carboxamide]
Cisplatin Sensitization Assay: +++ (Cisplatin sensitization value of <0.02 μM)

CN1CCN(C(=O)C2CCN(c3c(F)cncc3NC(=O)c3c(N)nn4cc(Cl)cnc34)CC2)CC1 [I-G-5, 2-amino-6-chloro-N-(5-fluoro-4-(4-(4-methylpiperazine-1-carbonyl)piperidin-1-yl)pyridin-3-yl)pyrazolo[1,5-a]pyrimidine-3-carboxamide]
Cisplatin Sensitization Assay: +++ (Cisplatin sensitization value of <0.02 μM)

Nc1nn2cc(Cl)cnc2c1C(=O)Nc1cnccc1OC1CCOCC1 [I-O-61, 2-amino-6-chloro-N-(4-((tetrahydro-2H-pyran-4-yl)oxy)pyridin-3-yl)pyrazolo[1,5-a]pyrimidine-3-carboxamide]
Cisplatin Sensitization Assay: +++ (Cisplatin sensitization value of <0.02 μM)

CN1CCc2c(cncc2NC(=O)c2c(N)nn3cc(F)cnc23)C1 [I-C-8, 2-amino-6-fluoro-N-(7-methyl-5,6,7,8-tetrahydro-2,7-naphthyridin-4-yl)pyrazolo[1,5-a]pyrimidine-3-carboxamide]
Cisplatin Sensitization Assay: + (Cisplatin sensitization value>0.2 μM but <5 μM)

Nc1nn2cc(F)cnc2c1C(=O)Nc1cnccc1N1CCN2CCOC[C@@H]2C1 [I-N-115, (S)-2-amino-6-fluoro-N-(4-(hexahydropyrazino[2,1-c][1,4]oxazin-8(1H)-yl)pyridin-3-yl)pyrazolo[1,5-a]pyrimidine-3-carboxamide]
Cisplatin Sensitization Assay: +++ (Cisplatin sensitization value of <0.02 μM)

Nc1nn2cc(F)cnc2c1C(=O)Nc1cnccc1N1CCN(C2COC2)CC1 [I-N-1, 2-amino-6-fluoro-N-(4-(4-(oxetan-3-yl)piperazin-1-yl)pyridin-3-yl)pyrazolo[1,5-a]pyrimidine-3-carboxamide]
Cisplatin Sensitization Assay: ++ (Cisplatin sensitization value>0.02 μM but <0.2 μM)

CN1CCN(CC2CCN(c3c(F)cncc3NC(=O)c3c(N)nn4cc(F)cnc34)CC2)CC1=O [I-N-171, 2-amino-6-fluoro-N-(5-fluoro-4-(4-((4-methyl-3-oxopiperazin-1-yl)methyl)piperidin-1-yl)pyridin-3-yl)pyrazolo[1,5-a]pyrimidine-3-carboxamide]
Cisplatin Sensitization Assay: +++ (Cisplatin sensitization value of <0.02 μM)

CN(C)C(=O)C1CCCN(c2ccncc2NC(=O)c2c(N)nn3cc(F)cnc23)C1 (centres unmarked) [I-N-290, 2-amino-N-(4-(3-(dimethylcarbamoyl)piperidin-1-yl)pyridin-3-yl)-6-fluoropyrazolo[1,5-a]pyrimidine-3-carboxamide]
Cisplatin Sensitization Assay: ++ (Cisplatin sensitization value>0.02 μM but <0.2 μM)

CC(=O)N1CCN(c2c(F)cncc2NC(=O)c2c(N)nn3cc(F)cnc23)CC1 [I-N-275, N-(4-(4-acetylpiperazin-1-yl)-5-fluoropyridin-3-yl)-2-amino-6-fluoropyrazolo[1,5-a]pyrimidine-3-carboxamide]
Cisplatin Sensitization Assay: +++ (Cisplatin sensitization value of <0.02 μM)
